# Test results reported in patent publication US20230029496A1, “AMINO ACID ALTERNATIVE CURING SYSTEM” (THE TEXAS A&M UNIVERSITY SYSTEM, priority 2019, published 2023).
# “And” between values parts separate entries of the source, which are not always exact repeats. Equal entries are not always repeated. Where two headings read alike, the source gives them in different places. Marks after values point to notes of the source that are not given here.
# Columns and labels:
# [1] = system: nitric oxide synthase system; conditions: pork; for Residual Nitrite, LSMean main effect of Temperature: L-arginine
# Protocol: Fresh ground meat (beef, pork or poultry) was separated in ˜0.5 Kg batches and mixed with 2% salt and 10% added water. […] Each individual batch was mixed (1 min) in a food processor, removed for temperature and pH analyses and then placed into a jerky extruder tube. Approximately 25 g of sample were extruded into 50 mL centrifuge, then capped and labeled and placed into a controlled water batch and heated to a designated internal endpoint temperature (132, 158, or 165° F.).
# Samples also contained 547 ppm sodium erythorbate, a cure accelerator (Phase I) and without sodium erythorbate (Phase II). Samples were placed into test tubes and heated in a controlled water bath to 132, 158 and 165° F. Samples were held in a 40° F. cooler for seven days then tested for residual nitrite. Residual nitrite was tested after deproteinization for amino acid analysis by HPLC. Determination of nitrite (UV/VIS Spectrophotometric Method) was used to detect any residual nitrite for best results in detecting minute amounts of nitrite. Residual nitrite levels were read in a 96 well plate reader at 540 nm.
# Both phases of the experiment were designed as a factorial (concentration level and endpoint temperature) randomized complete block design with three replications. […] Least squares means were generated and Tukey's HSD used to determine significance at P≤0.05.
# [2] = not given; remark: listed apart in the source
# [3] = system: NOS system; assay: NO-heme, total heme, nitrosylation in test beef frankfurters (Example 12)
# Protocol: The remaining nonmeat ingredients were added (except the antimicrobial) and chopped at 2000 rpm for one minute. Protecta (sodium acetate antimicrobial) was added and the emulsion chopped at 4000 rpm for one minute. The emulsion was evacuated and placed into a vacuum assisted stuffer where each test emulsion was stuffed and twist linked into 22 mm cellulose casings weighing 40 g each. The frankfurter links were hung on smokehouse trucks, placed into a commercial smokehouse and thermally processed to 160° F. (Table 18).
# After thermal processing and chilling (40° F.), the casings were peeled from the frankfurters and were vacuum packaged and stored under refrigerated conditions for residual nitrite and nitrosylation. […] This was done to determine if the L-arginine could the NOS system to generate sufficient NO for cure color development and residual nitrite for antioxidant and antimicrobial effect.
# [4] = system: nitric oxide synthase system
# Protocol: After thermal processing and chilling according to USDA-FSIS Appendix A—Thermal processing (71° C.) and B—Cooling procedures (2° C.) guidelines, the frankfurters will be vacuum packaged and stored under refrigeration (2° C.) until analyzed at 0, 14, 28 and 56 days post manufacture.
# The samples were analyzed for residual nitrite after deproteinization by sample preparation for amino acid analysis by HPLC.
# Samples were vacuum packaged and refrigerated and evaluated on Day 1, 7, 14, 28 and 56 post manufacture. Differences between treatment and control samples will be determined using Tukey's Least Significant Difference procedure at P≤0.05 level. The experiment was replicated three times.
# [5] = 1000 ppm L-arginine with 547 ppm sodium erythorbate
# [6] = 1000 ppm L-arginine, no cure accelerator
# [7] = 5000 ppm L-arginine with 547 ppm sodium erythorbate
# [8] = 5000 ppm L-arginine, no cure accelerator
smiles,measurement,setting,value
N=C(N)NCCC[C@H](N)C(=O)O [L-arginine],"Residual Nitrite, LSMean Conc × Temp","[1]; Phase I, with 547 ppm sodium erythorbate, 1000 ppm L-arginine, 165° F.",62.52 ppm
same,"Residual Nitrite, LSMean main effect of Concentration","[1]; Phase I, with 547 ppm sodium erythorbate, 2000 ppm L-arginine",68.91 ppm
same,"Residual Nitrite, LSMean Conc × Temp","[1]; Phase I, with 547 ppm sodium erythorbate, 2000 ppm L-arginine, 132° F.",80.08 ppm
same,"Residual Nitrite, LSMean Conc × Temp","[1]; Phase I, with 547 ppm sodium erythorbate, 2000 ppm L-arginine, 158° F.",66.63 ppm
same,"Residual Nitrite, LSMean Conc × Temp","[1]; Phase I, with 547 ppm sodium erythorbate, 2000 ppm L-arginine, 165° F.",60.04 ppm
same,"Residual Nitrite, LSMean main effect of Concentration","[1]; Phase I, with 547 ppm sodium erythorbate, 3000 ppm L-arginine",61.54 ppm
same,"Residual Nitrite, LSMean Conc × Temp","[1]; Phase I, with 547 ppm sodium erythorbate, 3000 ppm L-arginine, 132° F.",60.68 ppm
same,"Residual Nitrite, LSMean Conc × Temp","[1]; Phase I, with 547 ppm sodium erythorbate, 3000 ppm L-arginine, 158° F.",61.71 ppm
same,"Residual Nitrite, LSMean Conc × Temp","[1]; Phase I, with 547 ppm sodium erythorbate, 3000 ppm L-arginine, 165° F.",62.24 ppm
same,"Residual Nitrite, LSMean main effect of Concentration","[1]; Phase I, with 547 ppm sodium erythorbate, 4000 ppm L-arginine",52.07 ppm
same,"Residual Nitrite, LSMean Conc × Temp","[1]; Phase I, with 547 ppm sodium erythorbate, 4000 ppm L-arginine, 132° F.",48.21 ppm
same,"Residual Nitrite, LSMean Conc × Temp","[1]; Phase I, with 547 ppm sodium erythorbate, 4000 ppm L-arginine, 158° F.",52.12 ppm
same,"Residual Nitrite, LSMean Conc × Temp","[1]; Phase I, with 547 ppm sodium erythorbate, 4000 ppm L-arginine, 165° F.",55.87 ppm
same,"Residual Nitrite, LSMean main effect of Concentration","[1]; Phase I, with 547 ppm sodium erythorbate, 5000 ppm L-arginine",64.52 ppm
same,"Residual Nitrite, LSMean Conc × Temp","[1]; Phase I, with 547 ppm sodium erythorbate, 5000 ppm L-arginine, 132° F.",40.28 ppm
same,"Residual Nitrite, LSMean Conc × Temp","[1]; Phase I, with 547 ppm sodium erythorbate, 5000 ppm L-arginine, 158° F.",65.12 ppm
same,"Residual Nitrite, LSMean Conc × Temp","[1]; Phase I, with 547 ppm sodium erythorbate, 5000 ppm L-arginine, 165° F.",88.16 ppm
same,"Residual Nitrite, LSMean main effect of Temperature","[1]; Phase I, with 547 ppm sodium erythorbate, 132° F.",53.72 ppm
same,"Residual Nitrite, LSMean main effect of Temperature","[1]; Phase I, with 547 ppm sodium erythorbate, 158° F.",63.29 ppm
same,"Residual Nitrite, LSMean main effect of Temperature","[1]; Phase I, with 547 ppm sodium erythorbate, 165° F.",65.72 ppm
same,"Residual Nitrite, LSMean main effect of Concentration","[1]; Phase II, without 547 ppm sodium erythorbate, 1000 ppm L-arginine",73.46^b ppm and 73.46 ppm
same,"Residual Nitrite, LSMean Conc × Temperature","[1]; Phase II, without 547 ppm sodium erythorbate, 1000 ppm L-arginine, 132° F.",53.73^c ppm
same,"Residual Nitrite, LSMean Conc × Temperature","[1]; Phase II, without 547 ppm sodium erythorbate, 1000 ppm L-arginine, 158° F.",84.43^bc ppm
same,"Residual Nitrite, LSMean Conc × Temperature","[1]; Phase II, without 547 ppm sodium erythorbate, 1000 ppm L-arginine, 165° F.",82.22^bc ppm
same,"Residual Nitrite, LSMean main effect of Concentration","[1]; Phase II, without 547 ppm sodium erythorbate, 2000 ppm L-arginine",94.97^ab ppm and 94.97 ppm
same,"Residual Nitrite, LSMean Conc × Temperature","[1]; Phase II, without 547 ppm sodium erythorbate, 2000 ppm L-arginine, 132° F.",85.87^bc ppm
same,"Residual Nitrite, LSMean Conc × Temperature","[1]; Phase II, without 547 ppm sodium erythorbate, 2000 ppm L-arginine, 158° F.",113.28^ab ppm
same,"Residual Nitrite, LSMean Conc × Temperature","[1]; Phase II, without 547 ppm sodium erythorbate, 2000 ppm L-arginine, 165° F.",85.76^bc ppm
same,"Residual Nitrite, LSMean main effect of Concentration","[1]; Phase II, without 547 ppm sodium erythorbate, 3000 ppm L-arginine",85.31^ab ppm and 85.31 ppm
same,"Residual Nitrite, LSMean Conc × Temperature","[1]; Phase II, without 547 ppm sodium erythorbate, 3000 ppm L-arginine, 132° F.",68.26^bc ppm
same,"Residual Nitrite, LSMean Conc × Temperature","[1]; Phase II, without 547 ppm sodium erythorbate, 3000 ppm L-arginine, 158° F.",90.54^bc ppm
same,"Residual Nitrite, LSMean Conc × Temperature","[1]; Phase II, without 547 ppm sodium erythorbate, 3000 ppm L-arginine, 165° F.",97.13^bc ppm
same,"Residual Nitrite, LSMean main effect of Concentration","[1]; Phase II, without 547 ppm sodium erythorbate, 4000 ppm L-arginine",102.65^a ppm and 102.65 ppm
same,"Residual Nitrite, LSMean Conc × Temperature","[1]; Phase II, without 547 ppm sodium erythorbate, 4000 ppm L-arginine, 132° F.",71.48^bc ppm
same,"Residual Nitrite, LSMean Conc × Temperature","[1]; Phase II, without 547 ppm sodium erythorbate, 4000 ppm L-arginine, 158° F.",150.78^a ppm
same,"Residual Nitrite, LSMean Conc × Temperature","[1]; Phase II, without 547 ppm sodium erythorbate, 4000 ppm L-arginine, 165° F.",85.70^bc ppm
same,"Residual Nitrite, LSMean main effect of Concentration","[1]; Phase II, without 547 ppm sodium erythorbate, 5000 ppm L-arginine",72.06^b ppm and 72.06 ppm
same,"Residual Nitrite, LSMean Conc × Temperature","[1]; Phase II, without 547 ppm sodium erythorbate, 5000 ppm L-arginine, 132° F.",59.74^c ppm
same,"Residual Nitrite, LSMean Conc × Temperature","[1]; Phase II, without 547 ppm sodium erythorbate, 5000 ppm L-arginine, 158° F.",77.63^bc ppm
same,"Residual Nitrite, LSMean Conc × Temperature","[1]; Phase II, without 547 ppm sodium erythorbate, 5000 ppm L-arginine, 165° F.",78.82^bc ppm
same,"Residual Nitrite, LSMean main effect of Temperature","[1]; Phase II, without 547 ppm sodium erythorbate, 132° F.",67.81^c ppm and 67.81 ppm
same,"Residual Nitrite, LSMean main effect of Temperature","[1]; Phase II, without 547 ppm sodium erythorbate, 158° F.",103.33^a ppm and 103.33 ppm
same,"Residual Nitrite, LSMean main effect of Temperature","[1]; Phase II, without 547 ppm sodium erythorbate, 165° F.",85.93^b ppm and 85.93 ppm
same,pH,"L-arginine 3000 PPM, Day 1",5.91
same,pH,"L-arginine 3000 PPM, Day 7",5.86
same,pH,"L-arginine 3000 PPM, Day 14",6.02
same,pH,"L-arginine 3000 PPM, Day 28",6.06
same,pH,"L-arginine 4000 PPM, Day 1",5.92
same,pH,"L-arginine 4000 PPM, Day 7",5.90
same,pH,"L-arginine 4000 PPM, Day 14",5.96
same,pH,"L-arginine 4000 PPM, Day 28",6.00
same,pH,"L-arginine 5000 PPM, Day 1",5.87
same,pH,"L-arginine 5000 PPM, Day 7",5.92
same,pH,"L-arginine 5000 PPM, Day 14",5.94
same,pH,"L-arginine 5000 PPM, Day 28",6.01
same,water activity (Aw),"[2]; 3000 ppm L-arginine, Day 1",0.979
same,water activity (Aw),"[2]; 3000 ppm L-arginine, Day 7",0.978
same,water activity (Aw),"[2]; 3000 ppm L-arginine, Day 14",0.976
same,water activity (Aw),"[2]; 3000 ppm L-arginine, Day 28",0.982
same,water activity (Aw),"[2]; 4000 ppm L-arginine, Day 1",0.979
same,water activity (Aw),"[2]; 4000 ppm L-arginine, Day 7",0.982
same,water activity (Aw),"[2]; 4000 ppm L-arginine, Day 14",0.975
same,water activity (Aw),"[2]; 4000 ppm L-arginine, Day 28",0.975
same,water activity (Aw),"[2]; 5000 ppm L-arginine, Day 1",0.982
same,water activity (Aw),"[2]; 5000 ppm L-arginine, Day 7",0.957
same,water activity (Aw),"[2]; 5000 ppm L-arginine, Day 14",0.972
same,water activity (Aw),"[2]; 5000 ppm L-arginine, Day 28",0.976
same,NO-Heme,[3]; [5],23.59^ab ppm
same,Nitrosylation,[3]; [5],59.68^a %
same,Total Heme,[3]; [5],40.35^a ppm
same,NO-Heme,[3]; [6],17.79^b ppm
same,Nitrosylation,[3]; [6],43.64^a %
same,Total Heme,[3]; [6],41.71^a ppm
same,NO-Heme,[3]; [7],28.32^a ppm
same,Nitrosylation,[3]; [7],55.59^a %
same,Total Heme,[3]; [7],51.00^a ppm
same,NO-Heme,[3]; [8],27.94^a ppm
same,Nitrosylation,[3]; [8],54.26^a %
same,Total Heme,[3]; [8],52.81^a ppm
same,Cure color (nitrosylation),[3]; range over L-arginine frankfurters,43.64 to 59.68%
same,residual sodium nitrite,"[4]; 3000 ppm L-arginine, Day 1",55.90
same,residual sodium nitrite,"[4]; 3000 ppm L-arginine, Day 7",55.83
same,residual sodium nitrite,"[4]; 3000 ppm L-arginine, Day 14",62.60
same,residual sodium nitrite,"[4]; 3000 ppm L-arginine, Day 28",58.68
same,residual sodium nitrite,"[4]; 4000 ppm L-arginine, Day 1",49.92
same,residual sodium nitrite,"[4]; 4000 ppm L-arginine, Day 7",60.36
same,residual sodium nitrite,"[4]; 4000 ppm L-arginine, Day 14",53.71
same,residual sodium nitrite,"[4]; 4000 ppm L-arginine, Day 28",79.07
same,residual sodium nitrite,"[4]; 5000 ppm L-arginine, Day 1",73.95
same,residual sodium nitrite,"[4]; 5000 ppm L-arginine, Day 7",61.77
same,residual sodium nitrite,"[4]; 5000 ppm L-arginine, Day 14",52.91
same,residual sodium nitrite,"[4]; 5000 ppm L-arginine, Day 28",100.11
